Earlier results in article PMC8227856, “Antibacterial Activity of a Promising Antibacterial Agent: 22-(4-(2-(4-Nitrophenyl-piperazin-1-yl)-acetyl)-piperazin-1-yl)-22-deoxypleuromutilin” (Molecules, 2021).

Parameters: method as in PMID 25812151
Conditions: mice, oral acute toxicity; cited from earlier work

C=C[C@]1(C)C[C@@H](OC(=O)CSc2nnc(N)s2)[C@]2(C)[C@H](C)CC[C@]3(CCC(=O)[C@H]32)[C@@H](C)[C@@H]1O [ATTM, 14-O-[(2-Amino-1,3,4-thiadiazol-5-yl)Thioacetyl] Mutilin]
LD50: 2304.4 mg/kg
